Tests used:
CYP17A1 17,20-lyase = target: T1, CYP17A1 17,20-lyase (Homo sapiens, UniProt P05093); assay: CYP17A1 17,20-lyase activity assay, microsomes of transfected COS-1 cells; assay type: biochemical; conditions: for IC50: 17α-hydroxypregnenolone 500 nM, 1 h; for lower inhibitory potency against 17,20-lyase than posaconazole: relative to posaconazole
T1 construct: expressed in transfected cells; host or cells: COS-1 cells, transient transfection, microsomal fraction
T1 sequence (P05093 1-508): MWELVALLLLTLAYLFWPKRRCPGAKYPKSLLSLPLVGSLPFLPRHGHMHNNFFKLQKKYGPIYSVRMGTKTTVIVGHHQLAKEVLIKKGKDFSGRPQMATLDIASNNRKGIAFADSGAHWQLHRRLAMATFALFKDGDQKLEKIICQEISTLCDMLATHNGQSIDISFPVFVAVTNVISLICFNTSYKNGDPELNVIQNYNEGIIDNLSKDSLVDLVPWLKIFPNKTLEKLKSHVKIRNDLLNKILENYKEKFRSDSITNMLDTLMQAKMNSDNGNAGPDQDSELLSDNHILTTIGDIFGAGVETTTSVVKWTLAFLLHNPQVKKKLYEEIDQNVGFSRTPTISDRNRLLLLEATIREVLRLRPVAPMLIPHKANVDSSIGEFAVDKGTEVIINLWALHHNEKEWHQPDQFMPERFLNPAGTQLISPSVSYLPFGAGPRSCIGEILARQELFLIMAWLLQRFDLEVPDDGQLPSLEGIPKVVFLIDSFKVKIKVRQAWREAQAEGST
Experimental: Microsomes were prepared from COS-1 cells transiently transfected with plasmids for either CYP17A1 and POR for CYP17A1-hydroxylase assay (human CYP17A1 was available in our own plasmid collection after cloning into pcDNA3, POR was ordered from Genescript, Piscataway, USA, clone ID OHu25584C), CYP17A1, POR and cytochrome b5 for CYP17A1 17,20-lyase assay (cytochrome b5 was from Genescript, clone ID OHu09495D), POR and CYP21A2 (Genescript, CYP21A2 clone ID OHu18602D), or 3β-HSD2 (Genescript, clone ID OHu14034D). Transfection was performed using PEI and equal amounts of required plasmids with a total DNA amount of 8 µg per transfection of 3,000,000 cells. After overnight incubation, cells were washed with prewarmed PBS before adding ice-cold PBS. Cells were collected and centrifuged at 600 × g for 4 min at 4 °C, washed with ice cold PBS and centrifuged again. The pellet was resuspended in a resuspension buffer (20 mM Tris, pH 7.5, 50 mM KCl, 2 mM MgCl2, 0.25 M sucrose). Cells were disrupted with 30 S by a glass potter (2 cm^3) as described above. The homogenate was centrifuged for 20 min at 12,000 × g and 4 °C. Microsomes were pelleted by ultracentrifugation at 100,000 × g for 1 h at 4 °C. The pellet was resuspended in reaction buffer and the protein concentration determined using the Pierce Protein BCA kit as described above.
Microsomes, 250 µg/mL, expressing CYP17A1, POR and cytochrome b5 were incubated in reaction buffer for 10 min with 1 mM NADPH and the azole antifungals. The reaction was started by adding 500 nM 17α-hydroxypregnenolone in a total reaction volume of 50 µL. After 1 h of incubation at 37 °C, the reaction was stopped adding 50 µL methanol. Samples were evaporated to dryness, reconstituted in 6 µL methanol, diluted 1:25 in water and the DHEA concentration was quantified using an ELISA kit (DEH3344, Demeditec, Kiel, Germany). Absorbance was measured using a BioTek Citation5 imaging reader.

CYP11A1 = target: T2, CYP11A1 (Homo sapiens, UniProt P05108); assay: CYP11A1 assay based on mitochondrial fraction of V79-4 cells; assay type: biochemical; conditions: 10 µM, 20S-hydroxycholesterol 2 µM, 4 h, qualitative, assay of low sensitivity
T2 construct: host or cells: V79-4 cells (Chinese hamster), transient transfection, mitochondrial fraction
T2 sequence (P05108 40-521): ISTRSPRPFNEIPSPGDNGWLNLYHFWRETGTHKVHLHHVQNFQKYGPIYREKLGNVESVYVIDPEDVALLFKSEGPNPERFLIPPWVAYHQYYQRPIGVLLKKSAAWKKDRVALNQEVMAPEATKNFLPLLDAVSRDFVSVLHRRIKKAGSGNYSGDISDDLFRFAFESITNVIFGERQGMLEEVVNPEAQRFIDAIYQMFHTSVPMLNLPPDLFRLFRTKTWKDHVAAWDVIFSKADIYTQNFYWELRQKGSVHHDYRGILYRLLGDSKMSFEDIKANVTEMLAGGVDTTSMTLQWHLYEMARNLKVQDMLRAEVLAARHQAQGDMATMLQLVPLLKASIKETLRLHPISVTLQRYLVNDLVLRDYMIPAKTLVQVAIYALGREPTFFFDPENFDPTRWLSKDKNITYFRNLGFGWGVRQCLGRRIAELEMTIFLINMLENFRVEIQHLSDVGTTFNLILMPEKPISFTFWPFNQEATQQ
Experimental: Mitochondria were prepared as described previously with modifications ([Frezza et al., 2007]). Briefly, V79-4 cells (3,000,000) were seeded 4 h prior to transfection with 4 µg of expression plasmid for CYP11A1 and adrenodoxin (GeneScript Piscataway, USA, clone IDs OHu18602D and OHu55929D) using polyethylemine (PEI) in a PEI/DNA ratio of 3:1 (w/w). At 4 h post-transfection, medium was changed and cells were incubated overnight. Cells were collected in ice cold phosphate buffered saline (PBS) and centrifuged at 600 × g for 10 min at 4 °C. The pellet was resuspended in ice cold isolation buffer (10 mM Tris/MOPS, pH 7.4, 1 mM EGTA/Tris, pH 7.4, 200 mM sucrose in water) and transferred to a glass potter, followed by 35 S using a 2 cm^3 glass Teflon pestle. The homogenate was centrifuged for 10 min at 600 × g and 4 °C. The supernatant was collected and centrifuged for 10 min at 7000 × g at 4 °C. The pellet was washed and resuspended in 200 μL ice cold isolation buffer. After centrifugation, the pellet containing the mitochondrial fraction was resuspended in 30 μL reaction buffer (25 mM HEPES pH 7.4, 0.1 mM DTT, 0.1 mM EDTA, 4 mM MgCl2) and the protein content was determined by the BCA assay according to the manufacturer (Pierce BCA protein assay kit, Thermo Scientific, Rockford, USA). Bovine serum albumin provided with the kit was used as reference protein and absorbance was measured using a BioTek Cytation5 Imaging Reader (Agilent BioTek).
For the CYP11A1 activity assay, 500 µg/mL of freshly prepared mitochondrial fraction were pre-incubated on ice with reaction buffer, 1 mM NADPH and either vehicle (0.1% DMSO), 10 µM of the positive control ketoconazole ([Mast et al., 2013]) or the triazole antifungals for 10 min. The reaction was started by adding the substrate 20S-hydroxycholesterol at a final concentration of 2 µM in a reaction volume of 50 µL. After 4 h of incubation at 37 °C, the reaction was stopped by adding 50 µL methanol and shock-freezing in liquid nitrogen. Samples were stored at −80 °C until sample preparation for pregnenolone detection using an ELISA kit (Alpco, Salem, USA). Sample preparation included evaporation of samples to dryness, reconstitution in 6 µL methanol and 1:25 (v:v) dilution in water. The ELISA was performed according to the manufacturer and absorbance was measured using a BioTek Citation5 imaging reader.

IC50 (CYP17A1 17,20-lyase; cell-free) [µM]	inhibition of CYP17A1 17,20-lyase (CYP17A1 17,20-lyase; cell-free, in words)	preference for 17,20-lyase over the 17α-hydroxylase activity (CYP17A1 17,20-lyase; ratio of IC50 values)	inhibition of CYP11A1 activity (CYP11A1)	Structure (SMILES)	lower inhibitory potency against 17,20-lyase than posaconazole (CYP17A1 17,20-lyase) [times]
0.28	potently inhibited	four-fold preference	very weak inhibitory activity	CC[C@@H]([C@H](C)O)n1ncn(-c2ccc(N3CCN(c4ccc(OC[C@@H]5CO[C@@](Cn6cncn6)(c6ccc(F)cc6F)C5)cc4)CC3)cc2)c1=O [posaconazole, Posaconazole]	–
5.71	–	–	comparable to ketoconazole	C[C@@H](c1nc(-c2ccc(C#N)cc2)cs1)[C@](O)(Cn1cncn1)c1cc(F)ccc1F [isavuconazole]	20

Structure (SMILES)	IC50 (CYP17A1 17,20-lyase; cell-free) [µM]	inhibition of CYP17A1 17,20-lyase (CYP17A1 17,20-lyase; cell-free, in words)	preference for 17,20-lyase over the 17α-hydroxylase activity (CYP17A1 17,20-lyase; ratio of IC50 values)	inhibition of CYP11A1 activity (CYP11A1)	lower inhibitory potency against 17,20-lyase than posaconazole (CYP17A1 17,20-lyase) [times]
CCC(C)n1ncn(-c2ccc(N3CCN(c4ccc(OCC5COC(Cn6cncn6)(c6ccc(Cl)cc6Cl)O5)cc4)CC3)cc2)c1=O (stereo not shown) [itraconazole]	5.76	–	–	very weak inhibitory activity	20

— PMC10458698, “Characterization of the interferences of systemic azole antifungal drugs with adrenal steroid biosynthesis using H295R cells and enzyme activity assays” (Current Research in Toxicology, 2023)
